Consider ten molecules from ChEMBL document CHEMBL1201862, “PubChem BioAssay data set” (2004).

Molecules are shown by their SMILES.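 Tested at 5 concentrations; 48 h exposure; 96-well plates; endpoints linearly interpolated, else capped at highest concentration. GI50 is the concentration that inhibits growth by half.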 Activity calls are given as the source filed them. No stated cut-off is given here; in the data, active = GI50 up to about 1.1 µM and inactive = higher.

Among the test systems are BT-549; MCF7; SF-539; RPMI-8226; HCT-116; T47D; NCI-H522; HCT-15; UO-31; Hs-578T; NCI/ADR-RES; HCC 2998; IGROV-1; LOX IMVI; OVCAR-4; EKVX; A549; PC-3; 786-0; MOLT-4.
Holding throughout (assay): NCI-60 cell line screen, 48 h

For the molecule `O=C1OC(=O)C2CCCC3CCCC1C32` (stereo not given), the GI50 with BT-549, in the assay with MCF7, in the assay on SF-539, in the assay on RPMI-8226, in the assay with HCT-116 and with T47D was > 100 µM (inactive) in each case. Moreover, the GI50 is > 100 µM (inactive) in the assay with NCI-H522; above 100 µM in the assay with HCT-15; > 100 µM (inactive) with UO-31; > 100 µM (inactive) in the assay with Hs-578T; > 100 µM (inactive) in the assay with NCI/ADR-RES; > 100 µM (inactive) with HCC 2998. Further, the GI50 in the assay on IGROV-1, with LOX IMVI, in the assay with OVCAR-4, in the assay with EKVX, in the assay on A549 and with PC-3 was > 100 µM (inactive) in each case. Moreover, the GI50 in the assay with 786-0 and in the assay on MOLT-4 was > 100 µM (inactive) in each case.
In the case of `CC(=O)C1(C)CC(C#N)(C#N)C(C#N)=C1N` (stereo not given), the GI50 in the assay with BT-549, in the assay on MCF7, in the assay on SF-539, in the assay on RPMI-8226, in the assay with HCT-116 and with T47D was > 100 µM (inactive) throughout. In addition, the GI50 in the assay with NCI-H522 was > 100 µM (inactive); in the assay on HCT-15, above 100 µM; in the assay on UO-31, > 100 µM (inactive); in the assay on Hs-578T, > 100 µM (inactive); with NCI/ADR-RES it was > 100 µM (inactive); in the assay on HCC 2998, > 100 µM (inactive). Moreover, the GI50 in the assay with IGROV-1 was > 100 µM (inactive); with LOX IMVI, > 100 µM (inactive); with OVCAR-4 it was > 100 µM (inactive); in the assay on EKVX, 26.5 µM (inactive); with A549, 25.1 µM (inactive); in the assay on PC-3, > 100 µM (inactive). Moreover, the GI50 in the assay with 786-0 and with MOLT-4 was > 100 µM (inactive) each time.
For `CC1(O)CCC(C(C)(C)O)CC1` (stereo not given) [TERPIN], the GI50 with BT-549, with MCF7, in the assay with SF-539, in the assay with RPMI-8226, with HCT-116 and with T47D was > 100 µM (inactive) throughout. Also, the GI50 is > 100 µM (inactive) with NCI-H522; above 100 µM with HCT-15; > 100 µM (inactive) with UO-31; > 100 µM (inactive) in the assay with Hs-578T; > 100 µM (inactive) with NCI/ADR-RES; > 100 µM (inactive) with HCC 2998. The GI50 in the assay with IGROV-1 was 16.1 µM (inactive); with LOX IMVI, > 100 µM (inactive); in the assay with OVCAR-4, > 100 µM (inactive); in the assay with EKVX, 0.505 µM (active); with A549, > 100 µM (inactive); with PC-3, > 100 µM (inactive). The GI50 in the assay with 786-0 and in the assay with MOLT-4 was > 100 µM (inactive) each time.
For `COCn1c(C)c(C)c2c(=O)oc(C)nc21`, the GI50 in the assay with BT-549, with MCF7, in the assay with SF-539, in the assay with RPMI-8226, in the assay on HCT-116 and in the assay on T47D was > 100 µM (inactive) in each case. In addition, the GI50 in the assay on NCI-H522 was 94.2 µM (inactive); in the assay with HCT-15, above 100 µM; in the assay with UO-31 it was 89.1 µM (inactive); in the assay on Hs-578T it was > 100 µM (inactive); in the assay on NCI/ADR-RES, > 100 µM (inactive); with HCC 2998, > 100 µM (inactive). For the same molecule, the GI50 in the assay on IGROV-1, with LOX IMVI, in the assay with OVCAR-4, with EKVX, with A549 and with PC-3 was > 100 µM (inactive) throughout. Moreover, the GI50 in the assay with 786-0 and in the assay with MOLT-4 was > 100 µM (inactive) throughout.
For `CN(C)CCCNC(=O)CCNC(=O)c1cc(NC(=O)c2cc(NC(=O)c3cc(NC(=O)c4nccn4C)cn3C)cn2C)cn1C`, the GI50 with BT-549 was > 100 µM (inactive); in the assay on MCF7, > 100 µM (inactive); in the assay on SF-539, 54.6 µM (inactive); with RPMI-8226, > 100 µM (inactive); with HCT-116, > 100 µM (inactive); in the assay on T47D it was 31 µM (inactive). Further, the GI50 in the assay on NCI-H522 is 5.47 µM (inactive); with HCT-15 it was above 100 µM; with UO-31 it was > 100 µM (inactive); in the assay on Hs-578T, > 100 µM (inactive); in the assay on NCI/ADR-RES, > 100 µM (inactive); in the assay on HCC 2998, > 100 µM (inactive). Also, the GI50 with IGROV-1 is > 100 µM (inactive); in the assay on LOX IMVI, 21.9 µM (inactive); in the assay on EKVX it was > 100 µM (inactive); with A549, > 100 µM (inactive); in the assay with PC-3 it was > 100 µM (inactive); in the assay on 786-0, > 100 µM (inactive). The GI50 in the assay on MOLT-4 is > 100 µM (inactive).
As for `CCc1c(Cl)c(C)cc(O)c1Cl`, the GI50 with BT-549 was 16.6 µM (inactive); in the assay on MCF7, 32 µM (inactive); in the assay on SF-539, 23 µM (inactive); in the assay with RPMI-8226, 24.1 µM (inactive); in the assay with HCT-116 it was 33.5 µM (inactive); in the assay on T47D, 26.8 µM (inactive). In addition, the GI50 is 30.7 µM (inactive) in the assay on NCI-H522; 17.8 µM in the assay on HCT-15; 23.7 µM (inactive) in the assay with UO-31; 25.7 µM (inactive) with Hs-578T; 45.2 µM (inactive) in the assay with NCI/ADR-RES; 1.71 µM (inactive) in the assay on HCC 2998. In addition, the GI50 in the assay on IGROV-1 is 51.1 µM (inactive); with LOX IMVI, 23.8 µM (inactive); in the assay on OVCAR-4, 34.1 µM (inactive); in the assay on EKVX, 36.2 µM (inactive); in the assay with A549, 44.4 µM (inactive); with PC-3, 19.6 µM (inactive). For the same molecule, the GI50 in the assay with 786-0 was 38.2 µM (inactive); in the assay with MOLT-4 it was 27.4 µM (inactive).
Regarding `Clc1ccccc1/C=C/c1ccnc2ccccc12`, the GI50 in the assay with BT-549 was 14.6 µM (inactive); with MCF7, 11.6 µM (inactive); with SF-539, 18.4 µM (inactive); in the assay with RPMI-8226, 7.8 µM (inactive); with HCT-116, 15.7 µM (inactive); with T47D it was 13.6 µM (inactive). In addition, the GI50 with NCI-H522 is 14.3 µM (inactive); with HCT-15, 13.9 µM; in the assay on UO-31, 17.3 µM (inactive); in the assay with Hs-578T, 20.7 µM (inactive); with NCI/ADR-RES, 15.2 µM (inactive); in the assay on HCC 2998, 18.2 µM (inactive). Besides, the GI50 with IGROV-1 is 15.8 µM (inactive); in the assay with LOX IMVI it was 18.4 µM (inactive); in the assay on OVCAR-4, 16.1 µM (inactive); in the assay on EKVX, 5.48 µM (inactive); in the assay with A549, 16.2 µM (inactive); in the assay on PC-3, 16.4 µM (inactive). Besides, the GI50 with 786-0 is 15.8 µM (inactive).
Turning to `C(#CP(c1ccccc1)c1ccccc1)P(C#CP(c1ccccc1)c1ccccc1)c1ccccc1`, the GI50 with BT-549, in the assay on MCF7, in the assay on SF-539, in the assay with RPMI-8226, in the assay on HCT-116 and in the assay on T47D was > 100 µM (inactive) in each case. Further, the GI50 in the assay with NCI-H522 is > 100 µM (inactive); in the assay with HCT-15 it was above 100 µM; in the assay on UO-31, > 100 µM (inactive); in the assay on Hs-578T, > 100 µM (inactive); in the assay on NCI/ADR-RES, > 100 µM (inactive); in the assay with HCC 2998, > 100 µM (inactive). The GI50 in the assay with IGROV-1, with OVCAR-4, in the assay on EKVX, in the assay with A549, in the assay with PC-3 and in the assay on 786-0 was > 100 µM (inactive) each time. Moreover, the GI50 with MOLT-4 was > 100 µM (inactive).
On to `CC(CC(=O)N1C2CC3CCC2(CS1(=O)=O)C3(C)C)[Si](C)(C)C` (stereo not given), for which the GI50 with BT-549, in the assay with MCF7, in the assay with SF-539, in the assay with RPMI-8226, in the assay on HCT-116 and in the assay on T47D was > 100 µM (inactive) in each case. In addition, the GI50 in the assay on NCI-H522 is > 100 µM (inactive); in the assay on HCT-15 it was above 100 µM; in the assay with UO-31, > 100 µM (inactive); in the assay on Hs-578T, > 100 µM (inactive); with NCI/ADR-RES, > 100 µM (inactive); in the assay with HCC 2998, > 100 µM (inactive). Further, the GI50 in the assay on IGROV-1 was > 100 µM (inactive); with LOX IMVI, > 100 µM (inactive); with EKVX it was > 100 µM (inactive); in the assay on A549 it was > 100 µM (inactive); with PC-3, 61.5 µM (inactive); with 786-0, > 100 µM (inactive). The GI50 in the assay on MOLT-4 is > 100 µM (inactive).
For `COc1ccc(OC)c2c1C(=O)C(O)=C(Cl)C2=O`, the GI50 with BT-549, in the assay with MCF7, with SF-539, with RPMI-8226, with HCT-116 and in the assay on T47D was > 100 µM (inactive) throughout. For the same molecule, the GI50 was > 100 µM (inactive) in the assay on NCI-H522; above 100 µM with HCT-15; > 100 µM (inactive) in the assay on UO-31; > 100 µM (inactive) with Hs-578T; > 100 µM (inactive) in the assay with NCI/ADR-RES; > 100 µM (inactive) in the assay with HCC 2998. Further, the GI50 in the assay on IGROV-1, with LOX IMVI, in the assay with OVCAR-4, in the assay on A549, in the assay on PC-3 and with 786-0 was > 100 µM (inactive) in each case. Moreover, the GI50 in the assay on MOLT-4 is > 100 µM (inactive).
